In one test the target is T1, PfcFRS (Plasmodium falciparum, UniProt Q8I246).
T1 sequence (Q8I246 1-575): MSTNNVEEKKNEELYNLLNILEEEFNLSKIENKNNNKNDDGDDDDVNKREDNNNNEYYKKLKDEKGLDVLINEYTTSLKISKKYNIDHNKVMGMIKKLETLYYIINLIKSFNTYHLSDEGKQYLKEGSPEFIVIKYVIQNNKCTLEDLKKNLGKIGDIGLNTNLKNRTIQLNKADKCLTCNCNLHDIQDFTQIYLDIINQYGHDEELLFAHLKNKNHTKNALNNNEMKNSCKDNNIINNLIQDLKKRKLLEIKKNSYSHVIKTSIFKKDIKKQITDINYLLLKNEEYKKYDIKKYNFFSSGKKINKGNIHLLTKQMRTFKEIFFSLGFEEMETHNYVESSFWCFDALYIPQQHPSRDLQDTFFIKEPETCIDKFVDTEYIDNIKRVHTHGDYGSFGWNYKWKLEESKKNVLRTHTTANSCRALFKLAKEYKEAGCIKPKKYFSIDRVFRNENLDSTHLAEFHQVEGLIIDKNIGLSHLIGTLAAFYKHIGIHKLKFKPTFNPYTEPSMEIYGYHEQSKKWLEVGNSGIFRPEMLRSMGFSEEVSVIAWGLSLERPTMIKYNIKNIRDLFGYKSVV
T1 sequence (Q8IIW2 1-623 partner): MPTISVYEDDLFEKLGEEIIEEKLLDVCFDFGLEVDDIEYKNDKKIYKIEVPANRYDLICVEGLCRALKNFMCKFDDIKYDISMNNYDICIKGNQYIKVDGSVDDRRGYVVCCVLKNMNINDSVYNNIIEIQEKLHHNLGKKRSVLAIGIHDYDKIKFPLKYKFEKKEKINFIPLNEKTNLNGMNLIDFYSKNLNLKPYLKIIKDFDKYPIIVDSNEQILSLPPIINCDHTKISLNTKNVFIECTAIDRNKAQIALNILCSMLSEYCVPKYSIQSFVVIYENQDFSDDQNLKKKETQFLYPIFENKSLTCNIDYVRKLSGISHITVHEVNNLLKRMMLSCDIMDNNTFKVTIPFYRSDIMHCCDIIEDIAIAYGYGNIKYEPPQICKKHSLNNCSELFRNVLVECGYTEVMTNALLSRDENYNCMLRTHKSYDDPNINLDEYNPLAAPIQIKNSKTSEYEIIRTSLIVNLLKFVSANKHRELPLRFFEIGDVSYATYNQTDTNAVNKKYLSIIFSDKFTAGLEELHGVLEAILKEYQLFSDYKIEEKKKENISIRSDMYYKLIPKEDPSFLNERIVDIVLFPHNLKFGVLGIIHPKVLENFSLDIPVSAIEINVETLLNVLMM
In words: Surface Plasmon Resonance binding, PfcFRS. The settings on record: SPR, 25° C., PBS pH 7.4, 5% DMSO; read-out: cFRS Kd, Pf. The procedure: (§1) Surface Plasmon Resonance experiments to evaluate the binding of Compound 1 to proteins were carried out on a Biacore T200 instrument (GE Healthcare) at 25° C. The binding experiments were performed in buffer 10 mM phosphate buffered saline (PBS), pH 7.4, containing 5% dimethyl sulfoxide (DMSO). The flow system was primed with the running buffer before the initiation of the experiment. Both PfcFRS and HscFRS were immobilized to Sensor Chip CM5 by standard amine coupling chemistry using N-hydroxysuccinimide (NHS) and ethyl(dimethylaminopropyl) carbodiimide (EDC), to an immobilization level of approximately 1500 RU. The binding experiments were carried out in a single cycle kinetics mode. Compound 1 was serially diluted in running buffer, and injected at a flow rate of 60 μl min^−1 across both surface for 60 s and dissociation were set up for 120 s. The analysis was done using Biaevaluation (GE Healthcare) and GraphPad Prism 7 software (GraphPad Software Inc, USA). […] The equilibrium dissociation constants (Kd) were determined by plotting the measured response (Req) as a function of the analyte concentration. […] Measured sensograms illustrating the binding of various concentrations of Compound 1 to the protein are shown in FIG. 3B (PfcFRS) and 3C (HscFRS) including both the measured data and the 1:1 binding model fit.

A further test addresses T2, HscFRS (Homo sapiens, UniProt Q9Y285).
T2 sequence (Q9Y285 1-508): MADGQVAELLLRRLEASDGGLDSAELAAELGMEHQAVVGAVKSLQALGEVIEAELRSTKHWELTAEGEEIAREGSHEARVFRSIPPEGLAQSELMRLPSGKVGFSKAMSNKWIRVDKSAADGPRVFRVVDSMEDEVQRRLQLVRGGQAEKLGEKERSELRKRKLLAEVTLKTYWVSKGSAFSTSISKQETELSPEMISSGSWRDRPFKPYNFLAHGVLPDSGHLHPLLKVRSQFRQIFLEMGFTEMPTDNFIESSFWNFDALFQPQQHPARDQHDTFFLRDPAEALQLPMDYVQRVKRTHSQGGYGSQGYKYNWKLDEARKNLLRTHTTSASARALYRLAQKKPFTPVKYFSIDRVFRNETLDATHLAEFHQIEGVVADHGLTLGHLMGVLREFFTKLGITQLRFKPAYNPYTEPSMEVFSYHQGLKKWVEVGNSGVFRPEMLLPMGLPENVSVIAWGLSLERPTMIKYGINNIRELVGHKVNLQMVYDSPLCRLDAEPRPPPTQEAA
T2 sequence (Q9NSD9 1-589 partner): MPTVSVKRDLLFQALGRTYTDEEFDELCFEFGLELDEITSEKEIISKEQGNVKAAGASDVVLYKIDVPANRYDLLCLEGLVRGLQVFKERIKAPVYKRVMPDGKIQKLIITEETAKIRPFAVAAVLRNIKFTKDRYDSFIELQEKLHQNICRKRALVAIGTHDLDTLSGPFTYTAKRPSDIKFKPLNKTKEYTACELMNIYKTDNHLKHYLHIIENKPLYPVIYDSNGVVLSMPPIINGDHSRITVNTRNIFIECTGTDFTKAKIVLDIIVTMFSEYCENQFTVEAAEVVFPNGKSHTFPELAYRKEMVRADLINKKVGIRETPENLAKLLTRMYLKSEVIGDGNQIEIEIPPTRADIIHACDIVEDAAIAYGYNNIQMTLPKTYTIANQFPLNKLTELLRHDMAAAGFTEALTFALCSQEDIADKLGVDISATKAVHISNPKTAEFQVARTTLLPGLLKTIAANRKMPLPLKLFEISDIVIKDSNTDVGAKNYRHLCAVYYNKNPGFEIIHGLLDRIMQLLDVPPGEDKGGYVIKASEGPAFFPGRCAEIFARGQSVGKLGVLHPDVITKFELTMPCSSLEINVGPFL
Description: Surface Plasmon Resonance binding, HscFRS. The settings on record: SPR, 25° C., PBS pH 7.4, 5% DMSO; read-out: cFRS Kd, Hs. The procedure: as §1

Consider `COC[C@@H]1[C@H](c2ccc(C#Cc3ccccc3)cc2)[C@@H]2CN(C(=O)Nc3ccc(OC4CC4)cc3)C[C@@H](O)[C@@H](O)CN12` [Compound 1, (3S,4R,8R,9R,10S)—N-(4-cyclopropoxyphenyl)-3,4-dihydroxy-10-(methoxymethyl)-9-(4-(phenylethynyl)phenyl)-1,6-diazabicyclo[6.2.0]decane-6-carboxamide], for which the Kd (in general, a measure of binding affinity in units of concentration) turned out to be 0.004 µM on PfcFRS and 16 µM at HscFRS.

(Values after patent US20230279018A1, “AP[…] INHIBITION” (priority 2020, published 2023).)
